Source: patent publication US20220324835A1 (Nurix Therapeutics, Inc., priority 2018, published 2022)

Tests used:
T-cell [1] = assay: CD25 cell surface staining on T-cells stimulated with anti-CD3 antibody alone (Biological Example 2); format: cell-based, human; conditions: T-cell; for fold induction at 8 µM: 8 μM Cbl-b inhibitor
Cbl-b [2] = target: T1, Cbl-b (Homo sapiens, UniProt Q13191); assay: Cbl-b inhibition assay (Cbl-b activity assay, FRET, Biological Example 1; 100 mM NaCl, 60 nM Src kinase); format: biochemical; conditions: upper bound stated in text lists; read-out: IC50 values in the Cbl-b inhibition assay of Biological Example 1
T1 sequence (Q13191 36-427): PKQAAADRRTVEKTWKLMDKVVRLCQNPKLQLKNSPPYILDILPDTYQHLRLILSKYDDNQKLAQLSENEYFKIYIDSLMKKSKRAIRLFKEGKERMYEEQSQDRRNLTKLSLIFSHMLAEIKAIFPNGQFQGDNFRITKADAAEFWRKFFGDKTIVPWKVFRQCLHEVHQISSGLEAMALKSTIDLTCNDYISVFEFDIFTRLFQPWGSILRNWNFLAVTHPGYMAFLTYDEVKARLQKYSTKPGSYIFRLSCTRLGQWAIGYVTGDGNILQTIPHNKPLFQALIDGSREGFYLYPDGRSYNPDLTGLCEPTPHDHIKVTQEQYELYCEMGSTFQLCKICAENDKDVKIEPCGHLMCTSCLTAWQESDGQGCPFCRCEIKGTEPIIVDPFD
How it was run: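 Inhibitor activity is measured as reduced terbium-to-fluorescein FRET between streptavidin-terbium on biotinylated Cbl-b and Bodipy-fluorescein ubiquitin carried by an irreversible UbcH5B-Ub conjugate, binding of which depends on Src phosphorylation of Cbl-b.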

T-cell [3] = assay: CD25 cell surface staining on T-cells co-stimulated with anti-CD3 and anti-CD28 antibody (Biological Example 2); format: cell-based, human; conditions: Homo sapiens, T-cell; for fold induction at 4 µM: 4 μM Cbl-b inhibitor
How it was run: (§1)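 T-cells were stimulated with anti-CD3 antibody alone or with anti-CD28 antibody, in the presence or absence of Cbl-b inhibitor. IL-2 secretion or CD25 surface staining was measured, and values expressed as fold over the uninhibited baseline […].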

T-cell [4] = assay: IL-2 secretion from T-cells co-stimulated with anti-CD3 and anti-CD28 antibody (Biological Example 2); format: cell-based, human; conditions: Homo sapiens, T-cell; for fold induction at 4 µM: 4 μM Cbl-b inhibitor
How it was run: as §1

T-cell [5] = assay: IL-2 secretion from T-cells stimulated with anti-CD3 antibody alone (Biological Example 2); format: cell-based, human; conditions: T-cell; for fold induction at 8 µM: 8 μM Cbl-b inhibitor
Cbl-b [6] = target: T1, Cbl-b; assay: Cbl-b activity assay (Cbl-b inhibition assay), TR-FRET of Cbl-b interaction with UbcH5B-Ub; format: biochemical; conditions: assay buffer with 100 mM NaCl, 60 nM Src kinase; read-out: Cbl-b activity IC50
How it was run: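 UbcH5B (C85K) conjugated to N-terminally Bodipy-Fluorescein-labeled ubiquitin served as the fluorescent partner. After compound preincubation, Src kinase (60 nM) with 1 mM ATP and 5 mM MgCl2 (final) was added for 1.5 h, followed by a further 1 h incubation. Some values were obtained with 50 mM NaCl and 30 nM Src.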

[7] = Homo sapiens, 1 μM Cbl-b inhibitor, fold change over baseline (anti-CD3/anti-CD28 stimulated T-cells without inhibitor), read-out: CD25 staining Anti-CD3 stimulation
[8] = 0.3 μM Cbl-b inhibitor, fold change over baseline (anti-CD3/anti-CD28 stimulated T-cells without inhibitor), read-out: CD25 staining Anti-CD3/Anti-CD28 stimulation
[9] = 1 μM Cbl-b inhibitor, fold change over baseline (anti-CD3/anti-CD28 stimulated T-cells without inhibitor), read-out: CD25 staining Anti-CD3/Anti-CD28 stimulation
[10] = 0.3 μM Cbl-b inhibitor, fold change over baseline (anti-CD3/anti-CD28 stimulated T-cells without inhibitor), read-out: IL-2 secretion Anti-CD3/Anti-CD28 stimulation
[11] = 1 μM Cbl-b inhibitor, fold change over baseline (anti-CD3/anti-CD28 stimulated T-cells without inhibitor), read-out: IL-2 secretion Anti-CD3/Anti-CD28 stimulation
[12] = Homo sapiens, 1 μM Cbl-b inhibitor, fold change over baseline (anti-CD3/anti-CD28 stimulated T-cells without inhibitor), read-out: IL-2 secretion Anti-CD3 stimulation
[13] = fold change over baseline, 1 μM Cbl-b inhibitor, primary human total T-cells, read-out: CD25 staining Anti-CD3 stimulation
[14] = fold change over baseline, primary human total T-cells, read-out: CD25 staining Anti-CD3 stimulation
[15] = fold change over baseline, 0.3 μM Cbl-b inhibitor, primary human total T-cells, read-out: CD25 staining Anti-CD3/Anti-CD28 stimulation
[16] = fold change over baseline, 1 μM Cbl-b inhibitor, primary human total T-cells, read-out: CD25 staining Anti-CD3/Anti-CD28 stimulation
[17] = fold change over baseline, primary human total T-cells, read-out: CD25 staining Anti-CD3/Anti-CD28 stimulation
[18] = fold change over baseline, 0.3 μM Cbl-b inhibitor, primary human total T-cells, read-out: IL-2 secretion Anti-CD3/Anti-CD28 stimulation
[19] = fold change over baseline, 1 μM Cbl-b inhibitor, primary human total T-cells, read-out: IL-2 secretion Anti-CD3/Anti-CD28 stimulation
[20] = fold change over baseline, primary human total T-cells, read-out: IL-2 secretion Anti-CD3/Anti-CD28 stimulation
[21] = fold change over baseline, 1 μM Cbl-b inhibitor, primary human total T-cells, read-out: IL-2 secretion Anti-CD3 stimulation
[22] = fold change over baseline, primary human total T-cells, read-out: IL-2 secretion Anti-CD3 stimulation
[23] = read-out: CD25 staining, Anti-CD3/Anti-CD28 stimulation, fold change over baseline
[24] = read-out: IL-2 secretion, Anti-CD3/Anti-CD28 stimulation, fold change over baseline

Row | Structure (SMILES) | fold induction at 1 µM (T-cell [1]; [7]) | IC50 (Cbl-b [2]) [nM] | fold induction at 0.3 µM (T-cell [3]; [8]) | fold induction at 1 µM (T-cell [3]; [9]) | fold induction at 0.3 µM (T-cell [4]; [10]) | fold induction at 1 µM (T-cell [4]; [11]) | fold induction at 1 µM (T-cell [5]; [12]) | IC50 (Cbl-b [6]) [nM] | also measured
1 | Cn1cnnc1CC1(c2cccc(N3Cc4c(cc(C5CN6CCC5CC6)cc4C(F)(F)F)C3=O)c2)COC1 (stereo not drawn) [Example 560, 2-(3-(3-((4-methyl-4H-1,2,4-triazol-3-yl)methyl)oxetan-3-yl)phenyl)-6-(quinuclidin-3-yl)-4-(trifluoromethyl)isoindolin-1-one] | 0.601 to 0.8 | ≤ 100 | 1.01 to 1.3 | 1.01 to 1.3 | 2.51 to 5 | 5 to 7.5 | < 0.05 | < 100 | 
2 | CN1C[C@H]2C[C@@H]1CN2c1cc2c(c(C(F)(F)F)c1)CN(c1cccc([C@@](C)(F)C(F)(F)c3nncn3C)c1)C2=O [Example 562, 6-((1R,4R)-5-Methyl-2,5-diazabicyclo[2.2.1]heptan-2-yl)-2-(3-((R)-1,1,2-trifluoro-1-(4-methyl-4H-1,2,4-triazol-3-yl)propan-2-yl)phenyl)-4-(trifluoromethyl)-isoindolin-1-one] | > 1 | ≤ 100 | 1.51 to 1.75 | 1.51 to 1.75 | 5 to 7.5 | > 7.5 | > 0.201 | < 100 | 
3 | Cn1cnnc1CC1(c2cccc(N3Cc4c(cc(N5CCC(C(F)F)C5)cc4C(F)(F)F)C3=O)c2)COC1 (stereo not drawn) [Example 601, 6-(3-(difluoromethyl)pyrrolidin-1-yl)-2-(3-(3-((4-methyl-4H-1,2,4-triazol-3-yl)methyl)oxetan-3-yl)phenyl)-4-(trifluoromethyl)isoindolin-1-one] | 0.601 to 0.8 | ≤ 100 | 1.01 to 1.3 | 1.01 to 1.3 | 1.01 to 2.5 | 2.51 to 5 | < 0.05 | < 100 | 
4 | CO[C@@H]1CCN(Cc2cc3c(c(C(F)(F)F)c2)CN(c2cccc(C4(Cc5nncn5C)COC4)c2)C3=O)C[C@@H]1F (relative stereo) [Example 621, 6-(((cis)-3-fluoro-4-methoxypiperidin-1-yl)methyl)-2-(3-(3-((4-methyl-4H-1,2,4-triazol-3-yl)methyl)oxetan-3-yl)phenyl)-4-(trifluoromethyl)isoindolin-1-one] | > 1 | ≤ 100 | 1.31 to 1.5 | 1.31 to 1.5 | > 7.5 | > 7.5 | > 0.201 | < 100 | 
5 | Cn1cnnc1CC1(c2cccc(N3Cc4c(cc(CN5CC6CC5CO6)cc4C(F)(F)F)C3=O)c2)COC1 (stereo not drawn) [Example 619, 6-((2-oxa-5-azabicyclo[2.2.1]heptan-5-yl)methyl)-2-(3-(3-((4-methyl-4H-1,2,4-triazol-3-yl)methyl)oxetan-3-yl)phenyl)-4-(trifluoromethyl)isoindolin-1-one] | 0.801 to 1 | ≤ 100 | 1.01 to 1.3 | 1.01 to 1.3 | 2.51 to 5 | 5 to 7.5 | 0.051 to 0.1 | < 100 | 
6 | C[C@H](Cc1nncn1C)c1cc(N[C@@H]2CC[C@@H]2O)nc(N2Cc3c(cccc3C(F)(F)F)C2=O)c1 [Example 689a, 2-(6-(((1R,2S)-2-hydroxycyclobutyl)amino)-4-((R)-1-(4-methyl-4H-1,2,4-triazol-3-yl)propan-2-yl)pyridin-2-yl)-4-(trifluoromethyl)isoindolin-1-one] | 0.601 to 0.8 | ≤ 1000 | 1.01 to 1.3 | 1.01 to 1.3 | 1.01 to 2.5 | 1.01 to 2.5 | < 0.05 | 301 to 1000 | 
7 | Cn1cnnc1C(F)(F)[C@](C)(F)c1cccc(NC(=O)c2nc3c(C(F)(F)F)cccc3[nH]2)c1 [Compound 345, (R)-N-(3-(1,1,2-trifluoro-1-(4-methyl-4H-1,2,4-triazol-3-yl)propan-2-yl)phenyl)-4-(trifluoromethyl)-1H-benzo[d]imidazole-2-carboxamide] |  | ≤ 300 |  |  |  |  |  | 100 to 300 | fold induction at 1 µM (T-cell [1]; [13]): 0.601 to 0.8; fold induction at 8 µM (T-cell [1]; [14]): 0.601 to 0.8; fold induction at 0.3 µM (T-cell [3]; [15]): 1.01 to 1.3; fold induction at 1 µM (T-cell [3]; [16]): 1.01 to 1.3; fold induction at 4 µM (T-cell [3]; [17]): 1.01 to 1.3; fold induction at 0.3 µM (T-cell [4]; [18]): 1.01 to 2.5; fold induction at 1 µM (T-cell [4]; [19]): 1.01 to 2.5; fold induction at 4 µM (T-cell [4]; [20]): 2.51 to 5; fold induction at 1 µM (T-cell [5]; [21]): 0.051 to 0.1; fold induction at 8 µM (T-cell [5]; [22]): 0.151 to 0.2
8 | CCOc1cc(N2Cc3c(cc([C@H](C)N4CC[C@H](F)C4)cc3C(F)(F)F)C2=O)cc(C2(Cc3nncn3C)COC2)c1 [Example 691b, 2-(3-ethoxy-5-(3-((4-methyl-4H-1,2,4-triazol-3-yl)methyl)oxetan-3-yl)phenyl)-6-((S)-1-((S)-3-fluoropyrrolidin-1-yl)ethyl)-4-(trifluoromethyl)isoindolin-1-one] | > 1 | ≤ 100 | 1.31 to 1.5 | 1.51 to 1.75 | 2.51 to 5 | > 7.5 | 0.151 to 0.2 | < 100 | 
9 | Cn1cnnc1CC1(c2cccc(N3Cc4c(cc(CN5C6CCC5CC6)cc4C(F)(F)F)C3=O)c2)COC1 [Example 555, 6-((7-azabicyclo[2.2.1]heptan-7-yl)methyl)-2-(3-(3-((4-methyl-4H-1,2,4-triazol-3-yl)methyl)oxetan-3-yl)phenyl)-4-(trifluoromethyl)isoindolin-1-one] |  | ≤ 100 |  |  |  |  |  | < 100 | fold induction at 1 µM (T-cell [1]; Homo sapiens, read-out: CD25 staining, Anti-CD3 stimulation, fold change over baseline): > 1; fold induction at 0.3 µM (T-cell [3]; [23]): 1.51 to 1.75; fold induction at 1 µM (T-cell [3]; [23]): 1.51 to 1.75; fold induction at 0.3 µM (T-cell [4]; [24]): > 7.5; fold induction at 1 µM (T-cell [4]; [24]): > 7.5; fold induction at 1 µM (T-cell [5]; Homo sapiens, read-out: IL-2 secretion, Anti-CD3 stimulation, fold change over baseline): > 0.201
10 | C[C@H](Cc1nncn1C)c1cccc(N2Cc3c(cc(-c4ccn[nH]4)cc3C(F)(F)F)C2=O)c1 [Compound 279, (R)-2-(3-(1-(4-methyl-4H-1,2,4-triazol-3-yl)propan-2-yl)phenyl)-6-(1H-pyrazol-5-yl)-4-(trifluoromethyl)isoindolin-1-one] |  | ≤ 100 |  |  |  |  |  | < 100 | fold induction at 1 µM (T-cell [1]; [13]): > 1; fold induction at 8 µM (T-cell [1]; [14]): > 1; fold induction at 0.3 µM (T-cell [3]; [15]): 1.01 to 1.3; fold induction at 1 µM (T-cell [3]; [16]): 1.31 to 1.5; fold induction at 4 µM (T-cell [3]; [17]): 1.31 to 1.5; fold induction at 0.3 µM (T-cell [4]; [18]): 2.51 to 5; fold induction at 1 µM (T-cell [4]; [19]): 5 to 7.5; fold induction at 4 µM (T-cell [4]; [20]): > 7.5; fold induction at 1 µM (T-cell [5]; [21]): > 0.201; fold induction at 8 µM (T-cell [5]; [22]): > 0.201
11 | C[C@H]1CN(Cc2cc3c(c(C(F)(F)F)c2)CN(c2cccc(C4(Cc5nncn5C)COC4)c2)C3=O)CCO1 [Example 663a, (S)-2-(3-(3-((4-methyl-4H-1,2,4-triazol-3-yl)methyl)oxetan-3-yl)phenyl)-6-((2-methylmorpholino)methyl)-4-(trifluoromethyl)isoindolin-1-one] | > 1 | ≤ 100 | 1.31 to 1.5 | 1.31 to 1.5 | 5 to 7.5 | > 7.5 | > 0.201 | < 100 | 
